PubChem BioAssay (NCI)
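96-well plates; 48 h exposure; 5 concentrations. Endpoints by linear interpolation between flanking doses. Not reached: highest tested concentration assigned. TGI marks complete inhibition of growth.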

Tests used:
Test in all cases: DTP human tumour cell line panel, 48 h
UO-31 renal = tested on: UO-31 renal
SN12C renal = tested on: SN12C renal
MDA-N = tested on: MDA-N
HCT-116 colon = tested on: HCT-116 colon
CCRF-CEM leukemia = tested on: CCRF-CEM leukemia
DU-145 prostate = tested on: DU-145 prostate
SNB-19 CNS = tested on: SNB-19 CNS
K-562 leukemia = tested on: K-562 leukemia
HS 578T breast = tested on: HS 578T breast
A498 renal = tested on: A498 renal
SW-620 colon = tested on: SW-620 colon
SF-295 CNS = tested on: SF-295 CNS
MDA-MB-231 breast = tested on: MDA-MB-231 breast
COLO 205 colon = tested on: COLO 205 colon
NCI-H522 lung = tested on: NCI-H522 lung
HT29 colon = tested on: HT29 colon
SK-MEL-5 melanoma = tested on: SK-MEL-5 melanoma
MOLT-4 leukemia = tested on: MOLT-4 leukemia
OVCAR-4 ovarian = tested on: OVCAR-4 ovarian
HL-60(TB) leukemia = tested on: HL-60(TB) leukemia
TK-10 renal = tested on: TK-10 renal
SK-OV-3 ovarian = tested on: SK-OV-3 ovarian
SR leukemia = tested on: SR leukemia
SK-MEL-2 melanoma = tested on: SK-MEL-2 melanoma
LOX IMVI melanoma = tested on: LOX IMVI melanoma
SNB-75 CNS = tested on: SNB-75 CNS
MDA-MB-435 = tested on: MDA-MB-435
OVCAR-3 ovarian = tested on: OVCAR-3 ovarian
MCF7 breast = tested on: MCF7 breast
UACC-257 melanoma = tested on: UACC-257 melanoma
CAKI-1 renal = tested on: CAKI-1 renal
SK-MEL-28 melanoma = tested on: SK-MEL-28 melanoma
KM12 colon = tested on: KM12 colon
SF-268 CNS = tested on: SF-268 CNS
RPMI-8226 leukemia = tested on: RPMI-8226 leukemia
786-0 renal = tested on: 786-0 renal
EKVX NSCLC = tested on: EKVX NSCLC
NCI-H23 lung = tested on: NCI-H23 lung
UACC-62 melanoma = tested on: UACC-62 melanoma
T-47D breast = tested on: T-47D breast
NCI/ADR-RES ovarian = tested on: NCI/ADR-RES ovarian
ACHN renal = tested on: ACHN renal
SF-539 CNS = tested on: SF-539 CNS
HOP-92 NSCLC = tested on: HOP-92 NSCLC
IGROV1 ovarian = tested on: IGROV1 ovarian
NCI-H226 lung = tested on: NCI-H226 lung
HOP-62 NSCLC = tested on: HOP-62 NSCLC
OVCAR-8 ovarian = tested on: OVCAR-8 ovarian
A549 NSCLC = tested on: A549 NSCLC
HCC-2998 colon = tested on: HCC-2998 colon
HCT-15 colon = tested on: HCT-15 colon
NCI-H460 lung = tested on: NCI-H460 lung
RXF 393 renal = tested on: RXF 393 renal
PC-3 prostate = tested on: PC-3 prostate
M14 melanoma = tested on: M14 melanoma
U251 CNS = tested on: U251 CNS
MALME-3M melanoma = tested on: MALME-3M melanoma

Measured: TGI

CC(=O)CC(O)(C(F)(F)Cl)C(F)(F)Cl
> 10 µM: all assays above
